The values below come from ChEMBL document CHEMBL1148958, “Antibacterial activity of naphthoquinones and triterpenoids from Euclea natalensis root bark” (J Nat Prod, 2004).

Active and inactive are the calls of the source. The rule behind the calls is not given here.

What all share (assay type): functional, organism-based
Experiment [1] has as its system Mycobacterium tuberculosis. Description: Antimycobacterial activity against Mycobacterium tuberculosis H37Rv at 0.006 mg/ml by rapid radiometric method.
In experiment [2] the test system is Mycobacterium tuberculosis. Description: Antimycobacterial activity against Mycobacterium tuberculosis H37Rv at 0.1 mg/ml by rapid radiometric method.
Experiment [3] deals with Bacillus pumilus. Briefly: Antibacterial activity against Bacillus pumilus ATCC 27142 at 0.1 mg/ml by agar plate method.
The subject of experiment [4] is Bacillus subtilis. Description: Antibacterial activity against Bacillus subtilis ATCC 6633 at 0.1 mg/ml by agar plate method.
Experiment [5] has as its system Staphylococcus aureus. Briefly: Antibacterial activity against Staphylococcus aureus ATCC 25923 at 0.1 mg/ml by agar plate method.
Experiment [6] relates to Enterococcus faecalis. Description: Antibacterial activity against Streptococcus faecalis at 0.1 mg/ml by agar plate method.
The test system of experiment [7] is Pseudomonas aeruginosa. Description: Antibacterial activity against Pseudomonas aeruginosa ATCC 27853 at 0.05 mg/ml by agar plate method.
The subject of experiment [8] is Pantoea agglomerans. Description: Antibacterial activity against Pantoea agglomerans ATCC 27155 at 0.01 mg/ml by agar plate method.
Experiment [9] has as its system Bacillus subtilis. Briefly: Antibacterial activity against Bacillus subtilis ATCC 6633 at 0.01 mg/ml by agar plate method.
The subject of experiment [10] is Bacillus cereus. Briefly: Antibacterial activity against Bacillus cereus at 0.01 mg/ml by agar plate method.
The test system of experiment [11] is Klebsiella pneumoniae. Briefly: Antibacterial activity against Klebsiella pneumoniae ATCC 10031 at 0.01 mg/ml by agar plate method.
For experiment [12], the system named is Escherichia coli. Description: Antibacterial activity against Escherichia coli ATCC 25922 at 0.01 mg/ml by agar plate method.
For experiment [13], the system named is Mycobacterium tuberculosis. Briefly: Antimycobacterial activity against Mycobacterium tuberculosis H37Rv at 0.004 mg/ml by rapid radiometric method.
Experiment [14] concerns Enterobacter cloacae. Description: Antibacterial activity against Enterobacter cloacae ATCC 13047 at 0.01 mg/ml by agar plate method.
The test system of experiment [15] is Enterococcus faecalis. Description: Antibacterial activity against Streptococcus faecalis at 0.01 mg/ml by agar plate method.
Experiment [16] deals with Serratia marcescens. Description: Antibacterial activity against Serratia marcescens ATCC 13880 at 0.1 mg/ml by agar plate method.
Experiment [17] deals with Bacillus pumilus. Briefly: Antibacterial activity against Bacillus pumilus ATCC 27142 at 0.01 mg/ml by agar plate method.
Experiment [18] concerns Staphylococcus aureus. Description: Antibacterial activity against Staphylococcus aureus ATCC 25923 at 0.01 mg/ml by agar plate method.

Turning to `CC[C@@H](CO)NCCN[C@@H](CC)CO`, the result in experiment [1] was Active.

`Cc1cc(O)c2c(c1)[C@H](O)CCC2=O`: the result in experiment [2], in experiment [3], in experiment [4], in [5] and in [6] was Active.

Consider `Cc1cc(O)c2c(c1)C(=O)C[C@H](c1c(C)cc3c(c1O)C(=O)CCC3O)[C@@H]2O` (stereo not given in full), for which the result in experiment [3] was inactive.

Regarding `C=C(C)[C@@H]1CC[C@]2(C)CC[C@]3(C)[C@@H](CC[C@@H]4[C@@]5(C)CC[C@H](OC(=O)/C=C/c6ccc(OC)c(O)c6)C(C)(C)[C@@H]5CC[C@]43C)[C@H]12`, in experiment [3], the result was Active.

With `CN[C@@H]1[C@H](O[C@H]2[C@H](O[C@H]3[C@H](O)[C@@H](O)[C@H](N=C(N)N)[C@@H](O)[C@@H]3N=C(N)N)O[C@@H](C)[C@]2(O)C=O)O[C@@H](CO)[C@H](O)[C@H]1O`, the result in experiment [7], in experiment [8], in experiment [9], in experiment [10], in experiment [11] and in experiment [12] was Active. Also, the result in experiment [13], in experiment [14], in experiment [15], in [16], in [17] and in experiment [18] was Active.
